Experimental data published in patent US6083944A, “Quinoline-containing α-ketoamide cysteine and serine protease inhibitors” (Cephalon, Inc., priority 1998, dated 2000).

Biological target: T1, Recombinant human calpain I (Homo sapiens, UniProt P07384)
T1 construct: made in house
T1 sequence (P07384 1-714): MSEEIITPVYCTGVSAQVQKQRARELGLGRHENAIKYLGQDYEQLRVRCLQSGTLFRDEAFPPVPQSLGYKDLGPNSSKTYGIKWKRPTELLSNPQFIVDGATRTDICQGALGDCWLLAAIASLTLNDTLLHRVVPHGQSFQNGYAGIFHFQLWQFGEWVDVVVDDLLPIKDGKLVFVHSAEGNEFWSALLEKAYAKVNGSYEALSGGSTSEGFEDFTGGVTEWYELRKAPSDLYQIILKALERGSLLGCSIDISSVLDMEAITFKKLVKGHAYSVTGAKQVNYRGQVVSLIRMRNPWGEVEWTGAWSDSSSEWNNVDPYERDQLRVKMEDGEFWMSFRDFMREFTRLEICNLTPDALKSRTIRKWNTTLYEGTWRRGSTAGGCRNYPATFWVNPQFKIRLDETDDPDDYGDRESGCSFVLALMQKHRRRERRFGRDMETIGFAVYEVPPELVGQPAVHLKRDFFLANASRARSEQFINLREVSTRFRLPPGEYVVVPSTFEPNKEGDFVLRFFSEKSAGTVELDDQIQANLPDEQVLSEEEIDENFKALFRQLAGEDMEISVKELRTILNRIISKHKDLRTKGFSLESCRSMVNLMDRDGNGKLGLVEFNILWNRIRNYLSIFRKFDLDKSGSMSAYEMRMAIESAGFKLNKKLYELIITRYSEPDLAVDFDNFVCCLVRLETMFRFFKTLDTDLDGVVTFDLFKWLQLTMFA
Test: Inhibition of calpain I (Succ-Leu-Tyr-MNA hydrolysis)
Format: biochemical
Conditions: Tables 2-4; for inhibition at 10 µM: values in parentheses, at 10,000 nM; for IC50: pH 7.5
Protocol: To evaluate inhibitory activity, stock solutions (40 times concentrated) of each compound to be tested were prepared in 100% anhydrous DMSO and 5 μl of each inhibitor preparation was aliquoted into each of three wells of a 96-well plate. Recombinant human calpain I, prepared by the method of Meyer et al. (Biochem. J. 1996, 314: 511-519), was diluted into assay buffer (i.e., 50 mM Tris, 50 mM NaCl, 1 mM EDTA, 1 mM EGTA, and 5 mM β-mercaptoethanol, pH 7.5, including 0.2 mM Succ-Leu-Tyr-MNA), and 175 μl was aliquoted into the same wells containing the independent inhibitor stocks as well as to positive control wells containing 5 μl DMSO, but no compound. To start the reaction, 20 μl of 50 mM CaCl2 in assay buffer was added to all wells of the plate, excepting three, which were used as background signal baseline controls. Substrate hydrolysis was monitored every 5 minutes for a total of 30 minutes. Substrate hydrolysis in the absence of inhibitor was linear for up to 15 minutes.
Inhibition of calpain I activity was calculated as the percent decrease in the rate of substrate hydrolysis in the presence of inhibitor relative to the rate in its absence. Comparison between the inhibited and control rates was made within the linear range for substrate hydrolysis. The IC50 S of inhibitors (concentration yielding 50% inhibition) were determined from the percent decrease in rates of substrate hydrolysis in the presence of five to seven different concentrations of the test compound. The results were plotted as percent inhibition versus log inhibitor concentration, and the IC50 was calculated by fitting the data to the four-parameter logistic equation shown below using the program GraphPad Prism (GraphPad Software, Inc., San Diego, Calif.).
The parameters a, b, c, and d are defined as follows: a is % inhibition in the absence of inhibitor, b is the slope, c is the IC50, and d is the % inhibition at an infinite concentration of inhibitor.

| Compound | inhibition at 10 µM | IC50 |
| --- | --- | --- |
| O=C(NCCNS(=O)(=O)c1ccccc1)C(=O)C(Cc1ccccc1)NC(=O)c1ccnc2ccccc12 (single isomer, unassigned) [Example 131] | 97% |  |
| O=C(NCCNS(=O)(=O)c1cccnc1)C(=O)C(Cc1ccccc1)NC(=O)c1cc(Cl)nc2ccccc12 (single isomer, unassigned) [Example 141] |  | 87 nM |
| Cc1cc(C(=O)NC(Cc2ccccc2)C(=O)C(=O)NCCNS(=O)(=O)c2ccc(-c3ccccn3)s2)c2ccccc2n1 (single isomer, unassigned) [Example 142] |  | 24 nM |
| COc1ccc2nc(C)cc(C(=O)NC(Cc3ccccc3)C(=O)C(=O)NCCNS(=O)(=O)c3ccc(-c4ccccn4)s3)c2c1 (single isomer, unassigned) [Example 143] |  | 35 nM |
| C#CCNC(=O)C(=O)C(Cc1ccccc1)NC(=O)c1cc(C#Cc2ccccc2)nc2ccccc12 (centres unmarked) [Example 1] | 91% |  |
| O=C(NCC(F)(F)F)C(=O)C(Cc1ccccc1)NC(=O)c1cc(C#Cc2ccccc2)nc2ccccc12 (centres unmarked) [Example 2] | 98% |  |
| C=CCNC(=O)C(=O)C(Cc1ccccc1)NC(=O)c1cc(C#Cc2ccccc2)nc2ccccc12 (centres unmarked) [Example 3] |  | 210 nM |
| O=C(NCC1CC1)C(=O)C(Cc1ccccc1)NC(=O)c1cc(C#Cc2ccccc2)nc2ccccc12 (centres unmarked) [Example 4] | 100% |  |
| N#CCCNC(=O)C(=O)C(Cc1ccccc1)NC(=O)c1cc(C#Cc2ccccc2)nc2ccccc12 (centres unmarked) [Example 5] | 95% |  |
| O=C(NCCC1=CCCCC1)C(=O)C(Cc1ccccc1)NC(=O)c1cc(C#Cc2ccccc2)nc2ccccc12 (centres unmarked) [Example 6] | 89% |  |
| COC(CNC(=O)C(=O)C(Cc1ccccc1)NC(=O)c1cc(C#Cc2ccccc2)nc2ccccc12)OC (centres unmarked) [Example 7] |  | 110 nM |
| COCCOCCCNC(=O)C(=O)C(Cc1ccccc1)NC(=O)c1cc(C#Cc2ccccc2)nc2ccccc12 (centres unmarked) [Example 8] |  | 570 nM |
| CCCCCCOCCOCCOCCNC(=O)C(=O)C(Cc1ccccc1)NC(=O)c1cc(C#Cc2ccccc2)nc2ccccc12 (centres unmarked) [Example 9] |  | 230 nM |
| O=C(NCCOCCO)C(=O)C(Cc1ccccc1)NC(=O)c1cc(C#Cc2ccccc2)nc2ccccc12 (centres unmarked) [Example 10] |  | 630 nM |
| COCCNC(=O)C(=O)C(Cc1ccccc1)NC(=O)c1cc(C#Cc2ccccc2)nc2ccccc12 (centres unmarked) [Example 11] |  | 480 nM |
| O=C(NCCCO)C(=O)C(Cc1ccccc1)NC(=O)c1cc(C#Cc2ccccc2)nc2ccccc12 (centres unmarked) [Example 12] | 94% |  |
| O=C(NCCCCO)C(=O)C(Cc1ccccc1)NC(=O)c1cc(C#Cc2ccccc2)nc2ccccc12 (centres unmarked) [Example 13] | 100% |  |
| O=C(NCCCCCO)C(=O)C(Cc1ccccc1)NC(=O)c1cc(C#Cc2ccccc2)nc2ccccc12 (centres unmarked) [Example 14] | 98% |  |
| O=C(NC12CC3CC(CC(C3)C1)C2)C(=O)C(Cc1ccccc1)NC(=O)c1cc(C#Cc2ccccc2)nc2ccccc12 (centres unmarked) [Example 15] | 41% |  |
| O=C(NC1CCCCNC1=O)C(=O)C(Cc1ccccc1)NC(=O)c1cc(C#Cc2ccccc2)nc2ccccc12 (centres unmarked) [Example 22] |  | 78 nM |
| O=C(NC(CO)Cc1ccccc1)C(=O)C(Cc1ccccc1)NC(=O)c1cc(C#Cc2ccccc2)nc2ccccc12 (centres unmarked) [Example 23] | 75% |  |
| CC(C)(C)OC(=O)N=C(NCCCCC(CO)NC(=O)C(=O)C(Cc1ccccc1)NC(=O)c1cc(C#Cc2ccccc2)nc2ccccc12)NC(=O)OC(C)(C)C (centres unmarked) [Example 25] | 42% |  |
| CC(NC(=O)C(=O)C(Cc1ccccc1)NC(=O)c1cc(C#Cc2ccccc2)nc2ccccc12)c1cccc2ccccc12 (centres unmarked) [Example 26] | 31% |  |
| CC(NC(=O)C(=O)C(Cc1ccccc1)NC(=O)c1cc(C#Cc2ccccc2)nc2ccccc12)c1ccccc1 (centres unmarked) [Example 27] |  | 510 nM |
| O=C(NC1CCCCC1O)C(=O)C(Cc1ccccc1)NC(=O)c1cc(C#Cc2ccccc2)nc2ccccc12 (centres unmarked) [Example 28] | 61% |  |

| Compound | inhibition at 10 µM | IC50 |
| --- | --- | --- |
| O=C(NC1CCCCC1)C(=O)C(Cc1ccccc1)NC(=O)c1cc(C#Cc2ccccc2)nc2ccccc12 (centres unmarked) [Example 30] | 85% |  |
| O=C(NCc1ccc2c(c1)OCO2)C(=O)C(Cc1ccccc1)NC(=O)c1cc(C#Cc2ccccc2)nc2ccccc12 (centres unmarked) [Example 33] |  | 388 nM |
| O=C(NCCCCc1ccccc1)C(=O)C(Cc1ccccc1)NC(=O)c1cc(C#Cc2ccccc2)nc2ccccc12 (centres unmarked) [Example 34] |  | 227 nM |
| O=C(NCc1ccccc1)C(=O)[C@H](Cc1ccccc1)NC(=O)c1cc(C#Cc2ccccc2)nc2ccccc12 [Example 36] |  | 79 nM |
| NS(=O)(=O)c1ccc(CNC(=O)C(=O)C(Cc2ccccc2)NC(=O)c2cc(C#Cc3ccccc3)nc3ccccc23)cc1 (centres unmarked) [Example 39] |  | 184 nM |
| O=C(NCc1cccc([N+](=O)[O-])c1)C(=O)C(Cc1ccccc1)NC(=O)c1cc(C#Cc2ccccc2)nc2ccccc12 (centres unmarked) [Example 40] | 95% |  |
| COc1ccc(CCNC(=O)C(=O)C(Cc2ccccc2)NC(=O)c2cc(C#Cc3ccccc3)nc3ccccc23)cc1OC (centres unmarked) [Example 41] | 88% |  |
| O=C(NCCc1ccccc1)C(=O)C(Cc1ccccc1)NC(=O)c1cc(C#Cc2ccccc2)nc2ccccc12 (centres unmarked) [Example 43] |  | 390 nM |
| O=C(NCC(c1ccccc1)c1ccccc1)C(=O)C(Cc1ccccc1)NC(=O)c1cc(C#Cc2ccccc2)nc2ccccc12 (centres unmarked) [Example 44] | 85% |  |
| O=C(NCc1cccnc1)C(=O)C(Cc1ccccc1)NC(=O)c1cc(C#Cc2ccccc2)nc2ccccc12 (centres unmarked) [Example 46] | 91% |  |
| O=C(NCc1ccncc1)C(=O)C(Cc1ccccc1)NC(=O)c1cc(C#Cc2ccccc2)nc2ccccc12 (centres unmarked) [Example 47] | 98% |  |
| COc1ccc2[nH]cc(CCNC(=O)C(=O)C(Cc3ccccc3)NC(=O)c3cc(C#Cc4ccccc4)nc4ccccc34)c2c1 (centres unmarked) [Example 49] |  | 160 nM |
| O=C(NCCCn1ccnc1)C(=O)C(Cc1ccccc1)NC(=O)c1cc(C#Cc2ccccc2)nc2ccccc12 (centres unmarked) [Example 50] | 84% |  |
| O=C(NCCCN1CCOCC1)C(=O)C(Cc1ccccc1)NC(=O)c1cc(C#Cc2ccccc2)nc2ccccc12 (centres unmarked) [Example 51] |  | 424 nM |
| O=C(NCC1CCCO1)C(=O)C(Cc1ccccc1)NC(=O)c1cc(C#Cc2ccccc2)nc2ccccc12 (centres unmarked) [Example 54] | 84% |  |
| O=C(NC1Cc2ccccc2C1)C(=O)C(Cc1ccccc1)NC(=O)c1cc(C#Cc2ccccc2)nc2ccccc12 (centres unmarked) [Example 55] | 60% |  |
| COc1ccc(C(=O)NCCNC(=O)C(=O)C(Cc2ccccc2)NC(=O)c2cc(C#Cc3ccccc3)nc3ccccc23)cc1 (centres unmarked) [Example 57] | 71% |  |
| CC(=O)NCCNC(=O)C(=O)C(Cc1ccccc1)NC(=O)c1cc(C#Cc2ccccc2)nc2ccccc12 (centres unmarked) [Example 60] |  | 140 nM |
| O=C(NCCNC(=O)C(=O)C(Cc1ccccc1)NC(=O)c1cc(C#Cc2ccccc2)nc2ccccc12)Nc1ccc(Br)cc1 (centres unmarked) [Example 61] | 94% |  |
| O=C(NCCNC(=O)C(=O)C(Cc1ccccc1)NC(=O)c1cc(C#Cc2ccccc2)nc2ccccc12)NC12CC3CC(CC(C3)C1)C2 (centres unmarked) [Example 63] |  | 257 nM |
| O=C(NCCNC(=O)C(=O)C(Cc1ccccc1)NC(=O)c1cc(C#Cc2ccccc2)nc2ccccc12)Nc1ccccc1 (centres unmarked) [Example 64] |  | 67 nM |
| O=C(NCCNS(=O)(=O)c1cccc2nsnc12)C(=O)C(Cc1ccccc1)NC(=O)c1cc(C#Cc2ccccc2)nc2ccccc12 (centres unmarked) [Example 71] |  | 89 nM |
| O=C(NCCNS(=O)(=O)c1cccc([N+](=O)[O-])c1)C(=O)C(Cc1ccccc1)NC(=O)c1cc(C#Cc2ccccc2)nc2ccccc12 (centres unmarked) [Example 78] | 88% |  |
| O=C(NCCNS(=O)(=O)c1cccnc1)C(=O)[C@H](Cc1ccccc1)NC(=O)c1cc(C#Cc2ccccc2)nc2ccccc12 [Example 87] |  | 56 nM |
| O=C(NCCNS(=O)(=O)c1cccc2cccnc12)C(=O)C(Cc1ccccc1)NC(=O)c1cc(C#Cc2ccccc2)nc2ccccc12 (centres unmarked) [Example 89] |  | 130 nM |
